These are literature values, as cited in patent US20150272930A1, “Fixed Dosage Formulations of Angiotensin Converting Enzyme (ACE) inhibitor and the Diuretic Chlorthalidone” (AILEX Pharmaceuticals PVT. LTD., priority 2014, published 2015).

The conditions of this series: compared with HCTZ.

For `NS(=O)(=O)c1cc(C2(O)NC(=O)c3ccccc32)ccc1Cl` (centres unmarked) [Chlorthalidone, 2-chloro-5-(1-hydroxy-3-oxo-1,2-dihydroisoindol-1-yl)-benzenesulfonamide], the duration of action result is “longer duration of action”. The antihypertensive effectiveness result (over 24 hours) is on record as “more effective antihypertensive agent”.
